{
  "source": "paper PMC5384962",
  "about": "“First-in-human studies of seletalisib, an orally bioavailable small-molecule PI3Kδ inhibitor for the treatment of immune and inflammatory diseases” (European Journal of Clinical Pharmacology, 2017)",
  "origin": "cited, not measured here",
  "design": "method as in ref 29 = [29]; 29. Infinity Pharmaceuticals (2015) Press release: Infinity reports topline results from Phase 2 study of duvelisib in rheumatoid arthritis.",
  "conditions": "patients with moderate-to-severe RA; cited from earlier work",
  "data": [
    {"molecule": "C[C@H](Nc1ncnc2nc[nH]c12)c1cc2cccc(Cl)c2c(=O)n1-c1ccccc1", "note": "[duvelisib]", "values": [
      {"measurement": "phase II primary endpoint (ACR20 at week 12)", "value": "failed to meet its phase II study primary endpoint"}
    ]}
  ]
}
